Test results as given in ChEMBL document CHEMBL5335794, “Discovery of novel multifunctional ligands targeting GABA transporters, butyrylcholinesterase, β-secretase, and amyloid β aggregation as potential treatment of Alzheimer's disease” (Eur J Med Chem, 2023).

Tests used:
[1] = target: Sodium- and chloride-dependent GABA transporter 1 (Mus musculus) (UniProt P31648); assay: Inhibition of NO 711 marker binding to mouse GAT1 assessed as residual activity at 100 uM by LC-ESI-MS/MS based competitive MS binding assay relative to control
[2] = target: Acetylcholinesterase (Electrophorus electricus) (UniProt O42275); assay: Inhibition of electric eel AChE using acetylthiocholine iodide as substrate at 10 uM preincubated for 5 mins followed by substrate addition and measured after 5 mins by DTNB reagent based Ellman's method relative to control; conditions: time 10.0 min
Chain of Acetylcholinesterase (Electrophorus electricus) (O42275 24-633 limits assumed): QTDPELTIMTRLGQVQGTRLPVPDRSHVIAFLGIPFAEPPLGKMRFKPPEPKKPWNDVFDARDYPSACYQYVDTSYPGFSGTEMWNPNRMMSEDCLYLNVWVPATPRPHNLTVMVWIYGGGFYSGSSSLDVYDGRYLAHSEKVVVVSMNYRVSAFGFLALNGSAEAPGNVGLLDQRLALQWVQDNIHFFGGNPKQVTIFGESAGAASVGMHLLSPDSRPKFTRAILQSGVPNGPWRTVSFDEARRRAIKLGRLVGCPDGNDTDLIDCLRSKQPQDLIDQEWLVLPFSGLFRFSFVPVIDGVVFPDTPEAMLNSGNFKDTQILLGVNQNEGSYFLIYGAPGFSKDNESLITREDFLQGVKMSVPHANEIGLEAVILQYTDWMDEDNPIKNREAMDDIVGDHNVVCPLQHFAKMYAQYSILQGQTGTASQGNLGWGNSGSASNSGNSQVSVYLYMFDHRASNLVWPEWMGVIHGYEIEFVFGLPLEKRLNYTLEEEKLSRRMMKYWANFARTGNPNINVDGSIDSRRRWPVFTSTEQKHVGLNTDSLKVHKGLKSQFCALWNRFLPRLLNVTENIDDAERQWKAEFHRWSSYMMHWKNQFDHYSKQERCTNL

Beta-secretase 1 = Beta-secretase 1 (Homo sapiens, UniProt P56817); conditions: dose 50.0 µM, time 60.0 min
Chain of Beta-secretase 1 (P56817 whole entry): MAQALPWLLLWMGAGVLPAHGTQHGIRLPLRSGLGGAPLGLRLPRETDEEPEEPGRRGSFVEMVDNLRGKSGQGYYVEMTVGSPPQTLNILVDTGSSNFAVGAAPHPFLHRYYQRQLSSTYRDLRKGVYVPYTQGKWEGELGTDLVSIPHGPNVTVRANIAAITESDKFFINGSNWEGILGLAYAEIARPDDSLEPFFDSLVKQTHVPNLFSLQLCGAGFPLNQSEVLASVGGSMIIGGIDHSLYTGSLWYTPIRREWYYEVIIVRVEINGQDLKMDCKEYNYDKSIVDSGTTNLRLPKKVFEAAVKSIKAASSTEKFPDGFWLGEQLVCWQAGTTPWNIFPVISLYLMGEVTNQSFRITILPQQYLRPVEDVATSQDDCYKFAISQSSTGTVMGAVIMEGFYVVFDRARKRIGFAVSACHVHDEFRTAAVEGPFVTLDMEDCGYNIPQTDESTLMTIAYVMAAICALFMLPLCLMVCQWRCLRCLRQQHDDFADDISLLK

GABA transporter 2 = target: T1, GABA transporter 2 (Mus musculus, UniProt P31651); assay: Inhibition of mouse GAT2 transfected in HEK293 cells assessed as reduction in [3H]-GABA uptake preincubated for 25 mins followed by [3H]-GABA addition and measured after 10 mins by liquid scintillation counting analysis; format: cell-based; conditions: read-out: pIC50 (converted)
T1 sequence (P31651 whole entry): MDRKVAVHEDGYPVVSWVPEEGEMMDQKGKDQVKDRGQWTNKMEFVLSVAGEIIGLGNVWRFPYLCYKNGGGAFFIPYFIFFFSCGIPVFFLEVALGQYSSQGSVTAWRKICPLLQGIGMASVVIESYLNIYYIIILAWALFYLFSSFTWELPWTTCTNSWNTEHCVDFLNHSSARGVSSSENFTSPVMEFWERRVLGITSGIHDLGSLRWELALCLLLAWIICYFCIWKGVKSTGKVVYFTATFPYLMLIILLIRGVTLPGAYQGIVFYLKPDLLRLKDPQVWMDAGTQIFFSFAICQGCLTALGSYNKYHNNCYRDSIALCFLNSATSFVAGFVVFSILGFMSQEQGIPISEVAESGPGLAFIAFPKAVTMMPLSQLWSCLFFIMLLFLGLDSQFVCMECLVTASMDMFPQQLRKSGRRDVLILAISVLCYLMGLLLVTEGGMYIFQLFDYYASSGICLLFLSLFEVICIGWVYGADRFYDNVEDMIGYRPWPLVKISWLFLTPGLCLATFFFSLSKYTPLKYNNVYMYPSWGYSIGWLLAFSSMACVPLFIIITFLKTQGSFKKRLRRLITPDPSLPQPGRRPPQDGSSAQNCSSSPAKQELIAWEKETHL

GABA transporter 4 = target: T2, GABA transporter 4 (Mus musculus, UniProt P31650); assay: Inhibition of mouse GAT4 transfected in HEK293 cells assessed as reduction in [3H]-GABA uptake preincubated for 25 mins followed by [3H]-GABA addition and measured after 4 mins by liquid scintillation counting analysis; format: cell-based; conditions: read-out: pIC50 (converted)
T2 sequence (P31650 whole entry): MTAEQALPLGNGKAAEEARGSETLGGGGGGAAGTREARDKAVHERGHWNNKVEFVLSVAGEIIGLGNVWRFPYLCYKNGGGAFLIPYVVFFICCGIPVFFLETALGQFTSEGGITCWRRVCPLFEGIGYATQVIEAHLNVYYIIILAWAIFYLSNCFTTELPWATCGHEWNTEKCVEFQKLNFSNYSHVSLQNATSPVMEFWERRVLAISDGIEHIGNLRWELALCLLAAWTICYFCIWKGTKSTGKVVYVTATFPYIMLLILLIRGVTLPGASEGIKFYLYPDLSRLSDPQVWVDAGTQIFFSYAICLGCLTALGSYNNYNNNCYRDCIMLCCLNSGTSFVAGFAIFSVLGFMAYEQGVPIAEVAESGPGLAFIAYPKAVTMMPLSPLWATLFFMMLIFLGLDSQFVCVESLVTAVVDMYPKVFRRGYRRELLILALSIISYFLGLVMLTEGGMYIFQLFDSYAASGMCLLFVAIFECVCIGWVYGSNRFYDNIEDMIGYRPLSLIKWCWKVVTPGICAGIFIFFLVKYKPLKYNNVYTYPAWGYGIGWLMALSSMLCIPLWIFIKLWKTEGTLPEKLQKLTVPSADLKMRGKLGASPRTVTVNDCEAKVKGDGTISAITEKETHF

Cholinesterase = Cholinesterase (Equus caballus, UniProt P81908)
Chain of Cholinesterase (P81908 whole entry): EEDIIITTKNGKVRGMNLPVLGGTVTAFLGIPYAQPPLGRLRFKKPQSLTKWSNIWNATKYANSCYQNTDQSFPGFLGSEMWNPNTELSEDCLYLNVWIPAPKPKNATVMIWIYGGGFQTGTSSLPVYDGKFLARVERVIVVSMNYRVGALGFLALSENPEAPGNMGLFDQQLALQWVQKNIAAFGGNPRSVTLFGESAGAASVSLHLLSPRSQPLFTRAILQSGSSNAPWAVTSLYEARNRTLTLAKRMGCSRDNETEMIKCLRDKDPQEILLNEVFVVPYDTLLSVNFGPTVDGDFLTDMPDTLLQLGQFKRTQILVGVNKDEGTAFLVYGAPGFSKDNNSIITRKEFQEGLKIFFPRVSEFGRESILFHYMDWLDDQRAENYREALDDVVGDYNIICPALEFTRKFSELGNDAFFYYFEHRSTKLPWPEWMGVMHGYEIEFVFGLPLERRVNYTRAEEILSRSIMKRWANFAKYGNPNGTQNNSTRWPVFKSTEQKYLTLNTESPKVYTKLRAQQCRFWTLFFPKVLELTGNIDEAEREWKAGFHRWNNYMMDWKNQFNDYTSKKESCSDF
Description: Inhibition of equine serum BuChE using butyrylthiocholine iodide as substrate preincubated for 5 mins followed by substrate addition and measured after 5 mins by DTNB reagent based Ellman's method

[3] = target: Sodium- and chloride-dependent GABA transporter 1 (Mus musculus, UniProt P31648); assay: Inhibition of mouse GAT1 transfected in HEK293 cells assessed as reduction in [3H]-GABA uptake preincubated for 25 mins followed by [3H]-GABA addition and measured after 4 mins by liquid scintillation counting analysis; format: cell-based; conditions: for IC50: read-out: pIC50 (converted)
[4] = Inhibition of mouse GAT3 transfected in HEK293 cells assessed as reduction in [3H]-GABA uptake preincubated for 25 mins followed by [3H]-GABA addition and measured after 4 mins by liquid scintillation counting analysis; format: cell-based; conditions: for IC50: HEK293, read-out: pIC50 (converted); for pIC50: hek293
[5] = target: Cholinesterase (Equus caballus) (UniProt P81908); assay: Inhibition of equine serum BuChE using butyrylthiocholine iodide as substrate at 10 uM preincubated for 5 mins followed by substrate addition and measured after 5 mins by DTNB reagent based Ellman's method relative to control; conditions: time 10.0 min
Chain of Cholinesterase (Equus caballus) (P81908 whole entry): as the sequence (P81908 whole entry) above

SMILES | inhibition [2] [%] | inhibition (Beta-secretase 1) [%] | inhibition [5] [%] | other results
CN(CCOCCn1c2ccccc2c2ccccc21)C(CCO)C(=O)NCc1ccccc1Cl (stereo unspecified) | < 10 | 79 |  | Activity [1]: 94%; IC50 (GABA transporter 2): 16.2 µM; IC50 (GABA transporter 4): 11.2 µM; IC50 (Cholinesterase): 2.65 µM; IC50 [3]: 23.4 µM; IC50 [4]: 13.2 µM
CC(O)CC(C(=O)NCc1ccccc1)N(C)CC/C=C/c1ccccc1-c1ccccc1 (racemic; form 1) [listing 1 of 2 here] | < 10 | 36 | 58 | Activity [1]: 75%
CC(O)CC(C(=O)NCc1ccccc1)N(C)CC/C=C/c1ccccc1-c1ccccc1 (racemic; form 2) | < 10 | 4 |  | 
CN(CCC=C1c2ccccc2CCc2ccccc21)C(CCO)C(=O)NCc1ccc(F)cc1 (stereo unspecified) | < 10 | 34 | 39 | 
CN(CCC=C1c2ccccc2C=Cc2ccccc21)C(CO)C(=O)NCc1ccccc1Cl (stereo unspecified) | 12 | 52 |  | IC50 (Cholinesterase): 8.23 µM
CN(CCC=C1c2ccccc2C=Cc2ccccc21)C(CCO)C(=O)NCc1ccc(Cl)cc1 (stereo unspecified) | < 10 | 48 | 21 | 
CN(CCC=C1c2ccccc2CCc2ccccc21)C(CO)C(=O)NCc1ccc(Cl)cc1 (stereo unspecified) | < 10 | 34 | 36 | 
Cc1ccc(CNC(=O)C(CCO)N(C)CCC=C2c3ccccc3CCc3ccccc32)cc1 (stereo unspecified) | < 10 | 41 | 36 | 
CN(CCC=C1c2ccccc2C=Cc2ccccc21)C(CO)C(=O)NCc1ccc(F)cc1 (stereo unspecified) | < 10 | 30 |  | IC50 (Cholinesterase): 3.24 µM
Cc1ccc(CNC(=O)C(CCO)N(C)CCC=C2c3ccccc3C=Cc3ccccc32)cc1 (stereo unspecified) | < 10 | 47 | 35 | 
CN(CCC=C1c2ccccc2CCc2ccccc21)C(CCO)C(=O)NCc1ccccc1Cl (stereo unspecified) | 11 | 44 | 24 | 
CN(CCC=C1c2ccccc2CCc2ccccc21)C(CO)C(=O)NCc1ccc(F)cc1 (stereo unspecified) | < 10 | 48 | 32 | 
CN(CCC=C1c2ccccc2CCc2ccccc21)C(CO)C(=O)NCc1ccccc1 (stereo unspecified) | < 10 | 33 | 38 | 
CN(CCC=C1c2ccccc2C=Cc2ccccc21)C(CO)C(=O)NCc1ccccc1 (stereo unspecified) | < 10 | 29 |  | IC50 (Cholinesterase): 4.35 µM
CC(O)CC(C(=O)NCc1ccc(F)cc1)N(C)CC/C=C/c1ccccc1-c1ccccc1 (racemic; form 2) [listing 1 of 2 here] |  |  |  | IC50 (GABA transporter 2): 11.7 µM; IC50 (GABA transporter 4): 14.5 µM; pIC50 ([3]; hek293): 4.61; pIC50 [4]: 4.87
CN(CCC=C1c2ccccc2C=Cc2ccccc21)C(CCO)C(=O)NCc1ccc(F)cc1 (stereo unspecified) | < 10 | 39 | 39 | 
Cc1ccc(CNC(=O)C(CO)N(C)CCC=C2c3ccccc3CCc3ccccc32)cc1 (stereo unspecified) | < 10 | 59 | 45 | 
CC(=O)NCCC(C(=O)NCc1ccc(F)cc1)N(C)CCC=C1c2ccccc2CCc2ccccc21 (stereo unspecified) | < 10 | 54 | 47 | 
CC(O)CC(C(=O)NCc1ccccc1Cl)N(C)CC/C=C/c1ccccc1-c1ccccc1 (racemic; form 2) [listing 1 of 2 here] |  |  |  | IC50 (GABA transporter 2): 13.5 µM; IC50 (GABA transporter 4): 15.1 µM; IC50 (Cholinesterase): 3.67 µM; IC50 [3]: 28.8 µM; pIC50 [4]: 4.82
Cc1ccc(CNC(=O)C(CCO)N(C)CCC=C2c3ccccc3-c3ccccc32)cc1 (stereo unspecified) | < 10 | 55 | 52 | 

SMILES | inhibition [2] [%] | inhibition (Beta-secretase 1) [%] | inhibition [5] [%] | other results
CC(O)CC(C(=O)NCc1ccccc1)N(C)CC/C=C/c1ccccc1-c1ccccc1 (racemic; form 1) [listing 2 of 2 here] |  |  |  | IC50 (GABA transporter 2): 18.2 µM; IC50 (GABA transporter 4): 50.1 µM; IC50 [3]: 37.2 µM; IC50 [4]: 25.1 µM
CN(CCC=C1c2ccccc2-c2ccccc21)C(CCO)C(=O)NCc1ccccc1Cl (stereo unspecified) | < 10 | 59 |  | IC50 (Cholinesterase): 1.63 µM
CN(CCC=C1c2ccccc2CCc2ccccc21)C(CCO)C(=O)NCc1ccccc1 (stereo unspecified) | < 10 | 19 | 38 | 
CN(CCC=C1c2ccccc2C=Cc2ccccc21)C(CO)C(=O)NCc1ccc(Cl)cc1 (stereo unspecified) | 11 | 77 | 40 | 
CC(=O)NCCC(C(=O)NCc1ccccc1Cl)N(C)CCC=C1c2ccccc2CCc2ccccc21 (stereo unspecified) | < 10 | 44 | 41 | 
CN(CCC=C1c2ccccc2CCc2ccccc21)C(CCO)C(=O)NCc1ccc(Cl)cc1 (stereo unspecified) | < 10 | 43 | 19 | 
Cc1ccc(CNC(=O)C(CO)N(C)CCC=C2c3ccccc3C=Cc3ccccc32)cc1 (stereo unspecified) | 30 | 54 |  | IC50 (Cholinesterase): 6.22 µM
CN(CCC=C1c2ccccc2CCc2ccccc21)C(CO)C(=O)NCc1ccccc1Cl (stereo unspecified) | < 10 | 72 | 52 | 
CC(O)CC(C(=O)NCc1ccc(F)cc1)N(C)CC/C=C/c1ccccc1-c1ccccc1 (racemic; form 1) [listing 1 of 2 here] |  |  |  | IC50 (GABA transporter 2): 9.77 µM; IC50 (GABA transporter 4): 19.1 µM; IC50 [3]: 24.5 µM; IC50 [4]: 8.91 µM
CC(O)CC(C(=O)NCc1ccccc1Cl)N(C)CC/C=C/c1ccccc1-c1ccccc1 (racemic; form 2) [listing 2 of 2 here] | < 10 | 57 |  | Activity [1]: 76%
CN(CCC=C1c2ccccc2C=Cc2ccccc21)C(CCO)C(=O)NCc1ccccc1Cl (stereo unspecified) | < 10 | 48 | 32 | 
CC(=O)NCCC(C(=O)NCc1ccccc1)N(C)CCC=C1c2ccccc2CCc2ccccc21 (stereo unspecified) | < 10 | 34 | 60 | 
CC(=O)NCCC(C(=O)NCc1ccc(C)cc1)N(C)CCC=C1c2ccccc2CCc2ccccc21 (stereo unspecified) | < 10 | 36 | 43 | 
CC(=O)NCCC(C(=O)NCc1ccc(Cl)cc1)N(C)CCC=C1c2ccccc2CCc2ccccc21 (stereo unspecified) | < 10 | 49 | 24 | 
CC(O)CC(C(=O)NCc1ccccc1Cl)N(C)CC/C=C/c1ccccc1-c1ccccc1 (racemic; form 1) [listing 1 of 2 here] | < 10 | 43 | 64 | Activity [1]: 75%
CC(O)CC(C(=O)NCc1ccc(F)cc1)N(C)CC/C=C/c1ccccc1-c1ccccc1 (racemic; form 1) [listing 2 of 2 here] | < 10 | 39 | 59 | Activity [1]: 86%
CC(O)CC(C(=O)NCc1ccc(F)cc1)N(C)CC/C=C/c1ccccc1-c1ccccc1 (racemic; form 2) [listing 2 of 2 here] | < 10 | 36 | 62 | Activity [1]: 87%
CC(O)CC(C(=O)NCc1ccccc1Cl)N(C)CC/C=C/c1ccccc1-c1ccccc1 (racemic; form 1) [listing 2 of 2 here] |  |  |  | IC50 (GABA transporter 2): 15.5 µM; IC50 (GABA transporter 4): 38 µM; IC50 [3]: 33.9 µM; IC50 [4]: 13.8 µM
CN(CCC=C1c2ccccc2C=Cc2ccccc21)C(CCO)C(=O)NCc1ccccc1 (stereo unspecified) | < 10 | 34 | 56 | 
